Usually MIC stands for the smallest concentration in the dilution series that meets the test's criterion for growth inhibition. High values mean weaker potency, low ones greater potency. As usually defined, the Cmax is the maximum level reached in the sampled fluid or tissue. A word on the Tmax: it is the time from dosing to the highest level.

Series [1] has as its system P. aeruginosa PAO1 biofilm. Nature of the series: In vitro biofilm formation inhibition, crystal violet, 96-well plate. In kind it is cell-based. The settings on record: Pseudomonas aeruginosa; P. aeruginosa PAO1, 24 h exposure, LB broth with 0.2% glucose; read-out: biofilm preventive concentration (BPC50). How it is done: The effect of azithromycin and clindamycin on P. aeruginosa biofilm formation was assessed as described previously ([Sharma et al., 2009]; [Barman et al., 2016]; [Kumar et al., 2019]). Briefly, the overnight-grown culture of P. aeruginosa PAO1 in TSB was pelleted and resuspended in Luria-Bertani broth containing 0.2% glucose (10^7 CFU/ml). The bacterial suspension was spiked with different concentrations (16-0.015 μg/ml) of azithromycin or clindamycin in 96-well plates and incubated at 26 ± 2°C. The effects of azithromycin and clindamycin on inhibition of biofilm formation were assayed after 24 h of exposure. The wells were emptied and washed three times with phosphate-buffered saline (PBS; pH 7.3), and the adherent biofilm was stained with 200 μl of 1% crystal violet for 30 min and rinsed with distilled water. The adherent biofilm in the wells was solubilized with 200 μl of 30% acetic acid, and the optical density at 600 nm (OD600) was measured to quantify the formed biofilms. Each experiment was performed thrice, and the mean percent inhibition and standard deviations were calculated. The relative inhibition of biofilms, expressed as a mean percentage, was determined using the following formula: Percentinhibition=100-{([…]-controlwell)×100}

Series [2] relates to pre-formed biofilm of P. aeruginosa PAO1. The series is described as follows: Activity on pre-formed biofilm (eradication), crystal violet. Format: cell-based. The conditions noted are these: Pseudomonas aeruginosa; pre-formed 24 h biofilm of P. aeruginosa PAO1, 24 h exposure; read-out: minimum biofilm eradication concentration (MBEC50). How it is done: The efficacy of azithromycin was also evaluated on a pre-formed biofilm of P. aeruginosa PAO1 to assess the therapeutic or eradicative effect of azithromycin as described earlier ([Macia et al., 2014]). The bacterial suspension was prepared as described above and inoculated at 200 μl/well in a 96-well plate. After 24 h of incubation, the wells were emptied and washed with PBS and then spiked with different concentrations (16–0.015 μg/ml) of azithromycin prepared in LB broth containing 0.2% glucose. The plate was further incubated for 24 h, and the effect of azithromycin was assessed as described above.

The test system of series [3] is P. aeruginosa PA-14 planktonic cells. The series is described as follows: Time-kill kinetic study, planktonic cells. Format: cell-based, Pseudomonas aeruginosa. The settings on record: P. aeruginosa PA-14, LB media. Here is the method:
(§1) To further evaluate the effect of azithromycin on planktonic cells and biofilm formation, a time-kill kinetic study was performed. Briefly, 10 ml of LB broth containing 0.2% glucose and a sterile 2-cm-long piece of the catheter were pre-warmed at 26 ± 2°C in reaction tubes, and the different concentrations of azithromycin (2 or 16 μg/ml) were added to tubes. The bacterial inoculum of P. aeruginosa PA-14 was prepared as described above and added to the tubes to achieve a final inoculum of ∼1 × 10^5 CFU/ml. The tubes were incubated at 26 ± 2°C. The planktonic cell counts were determined at various time-points by serial dilution plating onto a trypticase soy agar plate. After 24 h of incubation, the catheter pieces from each tube were removed, non-adherent bacteria were washed from the catheter pieces, and the number of CFU embedded in biofilm per catheter was determined as described earlier ([Kumar et al., 2016], [2019]). The experiment was performed in triplicate, and the mean log10 killing of planktonic cells and biofilm inhibition were calculated for each concentration. To further assess biofilm formation in the absence (drug-free control) or presence of azithromycin, the catheter pieces were also sectioned and processed for scanning electron microscopy (SEM).

The test system of series [4] is P. aeruginosa PA-14 biofilm. The series is described as follows: Solid-surface biofilm formation on catheter piece (CFU, SEM). The conditions noted are these: P. aeruginosa PA-14, 24 h, azithromycin 2 or 16 μg/ml. Format: cell-based, Pseudomonas aeruginosa. How it is done:
as §1

The subject of series [5] is pelA promoter-lacZ in recombinant P. aeruginosa G2. Nature of the series: β-galactosidase activity of pel promoter-lacZ transcriptional fusion. Format: cell-based, Pseudomonas aeruginosa. Here is the method: To understand the molecular mechanism of biofilm inhibition, a recombinant mutant P. aeruginosa G2-containing promoterless lacZ gene under promoter control of pelA was gifted to us by Prof. Kilter ([Sakuragi and Kolter, 2007]). The β-galactosidase activity was performed in the absence and presence of different concentrations of azithromycin and levofloxacin, as described earlier ([Sakuragi and Kolter, 2007]).

Another series concerns P. aeruginosa G2. The series is described as follows: MIC. In kind it is cell-based. The conditions noted are these: Pseudomonas aeruginosa.
A further series relates to P. aeruginosa PA-14. Nature of the series: Chronic rat lung (biofilm) infection model, lung bacterial load. The conditions noted are these: 75 mg/kg PO, q24h for 4 days, started 3 days post-infection; lungs 22 h after last dose. In kind it is in vivo, Sprague-Dawley rats. The text has this: Specific pathogen-free female Sprague–Dawley (SD) rats, weighing 200 ± 20 g (age 8 weeks), were used for the study. The rats were procured from Vivo Biotech Pvt. Ltd., Hyderabad, India. The animals were housed in a pathogen-free animal facility and allowed 5 days of acclimatization in the study room before initiating the experiment. Feed and water were provided ad libitum during acclimatization and the study periods. All animal studies were approved by the institutional animal ethics committee. The animal studies were conducted under the strict guidelines of the committee for the Purpose of Control and Supervision of Experiments on Animals, Ministry of Environment, Forests and Climate Change, New Delhi, Government of India, and under the supervision of the institutional committee.
To determine the in vivo efficacy of azithromycin, a chronic biofilm model of P. aeruginosa was established in SD rats, which mimic the human chronic infection ([Hoover et al., 2017]; [Chawanpaiboon et al., 2019]). A semisolid 0.25% w/v agar beads suspension was prepared and autoclaved a day before the in vivo experiment and stored overnight at 4°C. […] The rats were then euthanized 22 h after the last dose, and the lungs’ bacterial load was determined by plating diluted lung homogenates on MHA.

The nature of series [6]: Pharmacokinetics in plasma and lung ELF of P. aeruginosa-infected rats. The settings on record: rat, in vivo, po, 75 mg/kg; for Kp: Sprague-Dawley, 75 mg/kg PO, infected rats. Here is the method:
The concentrations of azithromycin were assessed in the plasma and lung epithelial lining fluid (ELF) of the rats infected with P. aeruginosa PA-14. Intratracheal infection in rats was performed as described above. A single dose of 75 mg/kg of azithromycin was administered orally through gavage. Blood and broncho-alveolar lavage (BAL) fluid (with 2 ml of normal saline wash) were collected at different time-points up to 24 h post-dose from each animal by gross dissection. For the collection of BAL, 2 ml of sterile cold PBS was infused into the animal through the trachea and into the bronchial cavity and aspirated out. Plasma was harvested from blood samples by centrifugation. The azithromycin concentrations in plasma and BAL samples were determined using liquid chromatography with tandem mass spectrometry. The apparent volume of ELF (VELF) in BAL fluid was determined by the urea dilution method using the urea assay kit from BioChain (Hayward, CA). The concentration of azithromycin in ELF (CELF) was determined as
where CBAL is the measured concentration of azithromycin in BAL fluid.

Series [7] concerns QS molecule (3-O-C12 HSL) of P. aeruginosa. Nature of the series: QS molecule in epithelial lining fluid of infected rats. Format: in vivo. The conditions noted are these: azithromycin treated rats vs placebo control, 7 days post-infection.

≈ marks a conversion by molar mass, not a printed value. Like-named read-outs stand apart in the source and are kept apart here.

Take `CC[C@H]1OC(=O)[C@H](C)[C@@H](O[C@H]2C[C@@](C)(OC)[C@@H](O)[C@H](C)O2)[C@H](C)[C@@H](O[C@@H]2O[C@H](C)C[C@H](N(C)C)[C@H]2O)[C@](C)(O)C[C@@H](C)CN(C)[C@H](C)[C@@H](O)[C@]1(C)O` [azithromycin]: the IC50 in [1] was determined as 0.122 µg/mL (≈ 0.163 µM); in [2], 7.49 µg/mL (≈ 10 µM); in series [5] (Pseudomonas aeruginosa, read-out: inhibition of β-galactosidase activity, IC50), 0.17 µg/mL (≈ 0.227 µM). Besides, the “reduction in planktonic cell counts as compared to the drug-free control” value in [3] (6 h) is 1.86 log10. Also, the “effect on planktonic cell counts” value in series [3] (24 h post-incubation) is “no effect”. For the same molecule, the “solid-surface biofilm formation on catheter pieces” value in [4] is reported as “no solid-surface biofilm formed”. The molecule also had an MIC with P. aeruginosa G2 of more than 32 ng/mL. Besides, the “reduction in bacterial counts as compared to the placebo control” value with P. aeruginosa PA-14 came to 1.67 log10. For the same molecule, the Kp in series [6] (read-out: lung ELF/plasma ratio of AUCinf) amounted to 86; in [6] (read-out: lung ELF/plasma ratio of Cmax), 81. This molecule had a Cmax in series [6] of 950 ± 300 ng/mL. In series [6], the Tmax was determined as 2 h. Also, the “level of QS molecules in the ELF” value in series [7] is reported as “comparatively reduced level”.
On to `C[C@H]1COc2c(N3CCN(C)CC3)c(F)cc3c(=O)c(C(=O)O)cn1c23` [levofloxacin], for which the “effect on β-galactosidase activity” value in series [5] (P. aeruginosa G2, sub-MIC concentrations) was “did not influence”. Besides, the MIC with P. aeruginosa G2 stood at 1 ng/mL (≈ 0.00277 µM).

Source of the values: paper PMC8102702, “Azithromycin Exhibits Activity Against Pseudomonas aeruginosa in Chronic Rat Lung Infection Model” (Frontiers in Microbiology, 2021).
